Among the test systems are NCI-H522 lung; 786-0 renal; RPMI-8226 leukemia; U251 CNS; HCT-116 colon; SK-MEL-5 melanoma; OVCAR-5 ovarian; HS 578T breast; EKVX NSCLC; RXF 393 renal.
What all share (test): NCI-60 cell line screen, 48 h

Molecules are shown by their SMILES. “And” between values parts separate entries of the source, which are not always exact repeats. Equal values may be shown once.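 All cell lines were grown in 96-well plates and treated with compound for 48 hours. GI50: concentration for 50% inhibition of growth. TGI: total growth inhibition.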

Regarding `COc1cc(-c2ccc[nH]2)[nH]c1/C=C1\N=C(C)C(C(=O)NC(C)C)=C1C`, the GI50 in the experiment with NCI-H522 lung is 2150 nM; in the experiment on 786-0 renal it was 2900 nM; in the experiment on RPMI-8226 leukemia, 2230 nM; in the experiment with U251 CNS, 2590 nM; in the experiment with HCT-116 colon, 1520 nM; with SK-MEL-5 melanoma it was 1340 nM. The GI50 in the experiment with OVCAR-5 ovarian is 2970 nM; in the experiment with HS 578T breast, 2840 nM; with EKVX NSCLC it was 6350 nM; in the experiment with RXF 393 renal, 2280 nM. Also, the TGI in the experiment with NCI-H522 lung worked out at 6.65 µM; in the experiment on 786-0 renal it was 11.7 µM; in the experiment on RPMI-8226 leukemia, 5.97 µM; in the experiment on U251 CNS, 13.3 µM; with HCT-116 colon, 4.25 µM; in the experiment with SK-MEL-5 melanoma, 2.7 µM. The TGI in the experiment with OVCAR-5 ovarian is 17.3 µM; with HS 578T breast, 10.5 µM; in the experiment on EKVX NSCLC, 23.2 µM; with RXF 393 renal, 9.66 µM.
On to `COc1ccccc1CNCCCN1C(=O)c2ccc3c4c(ccc(c24)C1=O)C(=O)N(CCCNCCCCN)C3=O`, for which the GI50 was 182 nM with NCI-H522 lung; 616 nM in the experiment on 786-0 renal; 445 nM in the experiment with RPMI-8226 leukemia; 206 nM in the experiment on U251 CNS; 216 nM with HCT-116 colon; 164 nM in the experiment with SK-MEL-5 melanoma. In addition, the GI50 in the experiment on OVCAR-5 ovarian is 1060 nM; in the experiment on HS 578T breast, 1140 nM; with EKVX NSCLC it was 1150 nM; in the experiment on RXF 393 renal, 340 nM. The TGI in the experiment on NCI-H522 lung was 0.367 µM; in the experiment on 786-0 renal, 3.67 µM; with RPMI-8226 leukemia it was 6.13 µM; in the experiment with U251 CNS it was 0.731 µM; in the experiment with HCT-116 colon it was 0.694 µM; with SK-MEL-5 melanoma it was 0.303 µM. The TGI in the experiment on OVCAR-5 ovarian was determined as 7.97 µM; in the experiment with HS 578T breast it was 5.91 µM; with EKVX NSCLC, 2.82 µM; in the experiment on RXF 393 renal it was 1.41 µM.
Take `COc1ccc([C@H]2c3[nH]c4ccccc4c3C[C@H]3C(=O)N(CCCCCCC(=O)NO)CC(=O)N23)cc1`: the GI50 in the experiment with NCI-H522 lung was 1400 nM; in the experiment on 786-0 renal, 11000 nM; with U251 CNS, 1610 nM; in the experiment on HCT-116 colon it was 1070 nM; with SK-MEL-5 melanoma, 1890 nM; with OVCAR-5 ovarian, 1490 nM. The GI50 in the experiment on HS 578T breast was 1340 nM; in the experiment with EKVX NSCLC, 13400 nM; in the experiment on RXF 393 renal, 1330 nM. For the same compound, the TGI in the experiment with NCI-H522 lung was more than 33.3 µM; in the experiment with 786-0 renal, more than 33.3 µM; with U251 CNS it was more than 33.3 µM; in the experiment on HCT-116 colon, more than 33.3 µM; with SK-MEL-5 melanoma, 6.89 µM; with OVCAR-5 ovarian, more than 33.3 µM. Moreover, the values for the TGI in the experiment with HS 578T breast, with EKVX NSCLC and in the experiment with RXF 393 renal were more than 33.3 µM, more than 33.3 µM and 6.12 µM, respectively.
As for `c1ccc2[nH]c(-c3cscn3)nc2c1`, the TGI in the experiment with NCI-H522 lung, with 786-0 renal, with RPMI-8226 leukemia, with U251 CNS, in the experiment with HCT-116 colon and with SK-MEL-5 melanoma was more than 100 µM each time. Also, the TGI in the experiment on OVCAR-5 ovarian, in the experiment with HS 578T breast, with EKVX NSCLC and in the experiment with RXF 393 renal was more than 100 µM in each case. In addition, the GI50 is > 100000 nM and 31700 nM in the experiment with RPMI-8226 leukemia; > 100000 nM and 49100 nM in the experiment on RXF 393 renal.
With `C=C1CCC2C(C)(CO)C(O)CCC2(C)C1C/C=C1\C(=O)OCC1O` (configuration not stated), the TGI in the experiment with NCI-H522 lung was 28.4 µM; in the experiment with 786-0 renal it was 18.1 µM; in the experiment on RPMI-8226 leukemia, 49.9 µM; with U251 CNS it was 23.1 µM; in the experiment with HCT-116 colon it was 28.9 µM; with SK-MEL-5 melanoma, 27.8 µM. Further, the TGI with OVCAR-5 ovarian was 31.1 µM; in the experiment with HS 578T breast, more than 100 µM; in the experiment on EKVX NSCLC it was 99.7 µM; in the experiment with RXF 393 renal, 33.8 µM.
Turning to `COc1cc(OC)c(OC)cc1/C=C\c1ccnc2ccccc12`, the TGI stood at 4.25 µM in the experiment on NCI-H522 lung; 61.6 µM in the experiment with 786-0 renal; 99.1 µM with RPMI-8226 leukemia; 16.5 µM with U251 CNS; 54.8 µM in the experiment with HCT-116 colon; 19.7 µM with SK-MEL-5 melanoma. Also, the TGI was more than 100 µM with OVCAR-5 ovarian, 1.15 µM with HS 578T breast, more than 46.3 µM in the experiment on EKVX NSCLC and 5.28 µM with RXF 393 renal.
`CSc1ccc2c(c1)N(CCCN(C)C)c1ccccc1S2`: the TGI with NCI-H522 lung came to 26.6 µM; in the experiment with 786-0 renal, 28.5 µM; in the experiment with RPMI-8226 leukemia it was 28.5 µM; in the experiment with U251 CNS, 27.1 µM; in the experiment on HCT-116 colon, 26.9 µM; with SK-MEL-5 melanoma it was 25.4 µM. For the same compound, the TGI in the experiment with OVCAR-5 ovarian stood at 30.9 µM; in the experiment with HS 578T breast, 28.7 µM; with EKVX NSCLC, 35.1 µM; with RXF 393 renal, 22.5 µM.
Turning to `CCCC/C=C1/CCC(CN(C)C)C1=O` (configuration not stated), the TGI turned out to be 1.39 µM with NCI-H522 lung; 2.9 µM in the experiment with 786-0 renal; 0.897 µM with RPMI-8226 leukemia; 4.19 µM with U251 CNS; 4.01 µM with HCT-116 colon; 22 µM in the experiment with SK-MEL-5 melanoma. Further, the TGI in the experiment with OVCAR-5 ovarian is 12.3 µM; in the experiment on HS 578T breast, 15 µM; in the experiment on EKVX NSCLC, 4.48 µM; in the experiment with RXF 393 renal, 3.38 µM. The figures for the GI50 with OVCAR-5 ovarian and in the experiment on EKVX NSCLC were 97.1 nM and 2140 nM, respectively.
`Cc1ncc([N+](=O)[O-])n1CCOc1ccc(C(=O)/C=C/c2ccc(C(F)(F)F)cc2)cc1`: the GI50 was 2550 nM in the experiment on NCI-H522 lung; 1870 nM in the experiment with 786-0 renal; 1910 nM with RPMI-8226 leukemia; 1510 nM in the experiment on U251 CNS; 1650 nM with HCT-116 colon; 6100 nM with SK-MEL-5 melanoma. Besides, the GI50 is 2930 nM in the experiment with OVCAR-5 ovarian, 5200 nM with HS 578T breast and 4540 nM with RXF 393 renal. Also, the TGI in the experiment on NCI-H522 lung turned out to be 7.74 µM; in the experiment with 786-0 renal, 3.54 µM; with RPMI-8226 leukemia, 4.37 µM; with U251 CNS, 3.08 µM; in the experiment on HCT-116 colon, 3.34 µM; in the experiment on SK-MEL-5 melanoma, 20.3 µM. Also, the results for the TGI in the experiment with OVCAR-5 ovarian, in the experiment on HS 578T breast and in the experiment on RXF 393 renal were 14.4 µM, 33.3 µM and 17.6 µM, respectively.
`Cn1cc(C2=C(c3cccc([N+](=O)[O-])c3)C(=O)NC2=O)c2ccccc21`: the GI50 with NCI-H522 lung was 7660 nM; with 786-0 renal, 6450 nM; in the experiment with RPMI-8226 leukemia it was 7470 nM; in the experiment on U251 CNS it was 5900 nM; in the experiment with HCT-116 colon, 5500 nM; in the experiment on SK-MEL-5 melanoma, 3630 nM. Besides, the GI50 was more than 25000 nM in the experiment on OVCAR-5 ovarian, 2140 nM with HS 578T breast and 2120 nM with RXF 393 renal. Besides, the TGI is more than 22.5 µM in the experiment with NCI-H522 lung; more than 25 µM in the experiment on 786-0 renal; more than 23.2 µM in the experiment with RPMI-8226 leukemia; more than 25 µM in the experiment on U251 CNS; more than 25 µM in the experiment with HCT-116 colon; 8.48 µM with SK-MEL-5 melanoma. Further, the TGI was more than 25 µM with OVCAR-5 ovarian, more than 25 µM in the experiment on HS 578T breast and 9.4 µM in the experiment on RXF 393 renal.
On to `C#CCN(CCCOc1ccc(Cl)cc1Cl)CCCSC(=O)CCCCCN1/C(=C\C=C2/CCCC(/C=C/C3=[N+](CCCCCC(=O)[O-])c4ccccc4C3(C)C)=C2Cl)C(C)(C)c2ccccc21`, for which the GI50 in the experiment with NCI-H522 lung was 1160 nM; with 786-0 renal, 1780 nM; with U251 CNS, 733 nM; with HCT-116 colon, 1630 nM; with SK-MEL-5 melanoma it was 1620 nM; in the experiment on OVCAR-5 ovarian it was 1780 nM. The GI50 with HS 578T breast is 1470 nM; with EKVX NSCLC it was 2420 nM; in the experiment on RXF 393 renal, 1660 nM. The TGI is 3.34 µM in the experiment on NCI-H522 lung; 3.5 µM in the experiment with 786-0 renal; 2.11 µM in the experiment on U251 CNS; 3.14 µM in the experiment with HCT-116 colon; 3.02 µM with SK-MEL-5 melanoma; 3.92 µM in the experiment on OVCAR-5 ovarian. Also, the TGI is 6.4 µM in the experiment on HS 578T breast, 12.8 µM in the experiment with EKVX NSCLC and 3.37 µM in the experiment on RXF 393 renal.
`OCCN1CCCN(CCCN2c3ccccc3Sc3ccc(C(F)(F)F)cc32)CC1`: the GI50 with NCI-H522 lung is 3230 nM; with 786-0 renal, 2210 nM; in the experiment on RPMI-8226 leukemia, 2210 nM; in the experiment on U251 CNS, 2040 nM; in the experiment with HCT-116 colon it was 2100 nM; with SK-MEL-5 melanoma it was 1670 nM. The results for the GI50 with OVCAR-5 ovarian, with HS 578T breast and with RXF 393 renal were 3210 nM, 2040 nM and 2590 nM, respectively. The TGI in the experiment with NCI-H522 lung worked out at 14 µM; with 786-0 renal it was 5.25 µM; in the experiment with RPMI-8226 leukemia, 4.46 µM; in the experiment with U251 CNS, 4.32 µM; in the experiment with HCT-116 colon, 4.49 µM; with SK-MEL-5 melanoma it was 3.09 µM. The TGI with OVCAR-5 ovarian came to 15 µM; in the experiment with HS 578T breast it was 5.89 µM; with RXF 393 renal, 11.2 µM.
On to `N#CC(C#N)=C/C=C/c1ccccc1[N+](=O)[O-]`, for which the TGI in the experiment on NCI-H522 lung is more than 10 µM; in the experiment with 786-0 renal, more than 10 µM; in the experiment with RPMI-8226 leukemia, more than 10 µM; in the experiment with U251 CNS it was more than 10 µM; with HCT-116 colon, 3.67 µM; with SK-MEL-5 melanoma, more than 10 µM. The TGI in the experiment with HS 578T breast was more than 10 µM; in the experiment with EKVX NSCLC, more than 10 µM; with RXF 393 renal, 9.53 µM.
For the compound `CC1(C)N=C(N)N=C(N)N1c1ccc(CCCCCCc2ccc(S(=O)(=O)F)cc2)cc1`, the TGI turned out to be 20.2 µM with NCI-H522 lung; 16.5 µM in the experiment with 786-0 renal; 16.6 µM in the experiment with U251 CNS; 15.3 µM in the experiment with HCT-116 colon; 2.76 µM in the experiment on SK-MEL-5 melanoma; 15 µM with OVCAR-5 ovarian. Moreover, the results for the TGI with HS 578T breast, in the experiment on EKVX NSCLC and in the experiment with RXF 393 renal were 30.5 µM, 21.3 µM and more than 33.1 µM, respectively.
